Reference: US4767865A, “3'-pyridinylalkylinden- and 3'-pyridinylalkylindol-2-carboxylic acids and analogs” (The Upjohn Company, priority 1987, dated 1988)
Where a name gives a salt, the structure may show the parent alone. Read-outs that look alike come from different tables or passages of the source.

Legend:
thromboxane synthetase = assay: Inhibition of Thromboxane A2 biosynthesis in platelet rich plasma; assay type: cell-based; settings: at 1 μg/ml
Experimental: In this system, 6-(3-pyridylmethyl)indene-2-carboxylic acid inhibited thromboxane synthetase 95% as compared to control at 1 μg/ml.

TXA2 synthetase = target: T1, TXA2 synthetase (Homo sapiens, UniProt P24557); assay: TXA2 synthetase inhibition: TXA2 produced by mixing PGH2 and HPM, measured by response of the rabbit aorta; assay type: biochemical; settings: test compound added to HPM 5 minutes before mixing with PGH2, approximate
T1 construct: from tissue; host or cells: HPM (read as human platelet microsomes)
T1 sequence (P24557 1-533): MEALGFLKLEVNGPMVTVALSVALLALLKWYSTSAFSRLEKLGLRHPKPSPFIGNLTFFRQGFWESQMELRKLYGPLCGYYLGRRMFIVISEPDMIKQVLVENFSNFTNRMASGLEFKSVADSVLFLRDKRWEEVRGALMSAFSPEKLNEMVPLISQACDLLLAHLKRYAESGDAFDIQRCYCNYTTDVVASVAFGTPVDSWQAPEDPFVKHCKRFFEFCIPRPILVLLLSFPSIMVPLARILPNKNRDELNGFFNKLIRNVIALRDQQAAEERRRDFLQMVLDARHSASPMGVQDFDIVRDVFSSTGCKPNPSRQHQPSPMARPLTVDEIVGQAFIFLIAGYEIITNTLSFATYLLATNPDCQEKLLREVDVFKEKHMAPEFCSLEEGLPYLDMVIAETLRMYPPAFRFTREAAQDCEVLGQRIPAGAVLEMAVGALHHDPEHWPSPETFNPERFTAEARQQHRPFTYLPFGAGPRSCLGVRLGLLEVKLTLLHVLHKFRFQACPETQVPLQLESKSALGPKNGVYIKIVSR
Experimental: Potential inhibitors were tested by comparing the response of the rabbit aorta to the amount of TXA2 produced by mixing PGH2 and HPM without the test compound in the reaction medium and then the amount of TXA2 produced when the test compound was added to the HPM 5 minutes before the HPM was mixed with PGH2. […] For a discussion of TXA2 synthetase inhibition testing see, e.g., R. Gorman, supra.

| Structure (SMILES) | inhibited thromboxane synthetase as compared to control (thromboxane synthetase) | IC50 (TXA2 synthetase; read-out: approximate ED50 (lower bound)) | IC50 (TXA2 synthetase; read-out: approximate ED50 (upper bound)) |
| --- | --- | --- | --- |
| O=C(O)C1=Cc2ccc(Cc3cccnc3)cc2C1 [6-(3-Pyridylmethyl)indene-2-carboxylic Acid] | 95% |  |  |
| O=C(O)c1cc2cc(NCc3cccnc3)ccc2[nH]1 [Sodium Salt] |  | > 346 nM | < 3460 nM |
